According to the NIST ThermoML archive (doi:10.1021/je9009915):

Details: Liquid

FCC(F)(F)F [1,1,1,2-tetrafluoroethane]
Details | vapor or sublimation pressure [kPa]
303.45 K | 775.7
308.44 K | 892.2
313.3 K | 1018.8
318.39 K | 1165.4
323.3 K | 1319
328.26 K | 1492.4
333.3 K | 1683.7
338.24 K | 1889.6
343.23 K | 2115.3
